Test results from ChEMBL document CHEMBL1201862, “PubChem BioAssay data set” (2004).
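Grown in 96-well plates, cells were treated for 48 hours with each compound at five concentrations. Insufficient inhibition: endpoint recorded as highest concentration tested. GI50 is the concentration that inhibits growth by half.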 Active and inactive are the calls of the source. No stated cut-off is given here; in the data, active = GI50 up to about 1.1 µM and inactive = higher.

How the values were obtained:
Test in all cases: DTP human tumour cell line panel, 48 h
[1] = tested on: A549
[2] = tested on: MDA-MB-435
[3] = tested on: RXF 393
[4] = tested on: UACC-257
[5] = tested on: K562
[6] = tested on: RPMI-8226
[7] = tested on: MOLT-4
[8] = tested on: HCT-15
[9] = tested on: EKVX
[10] = tested on: ACHN
[11] = tested on: NCI-H460
[12] = tested on: HT-29
[13] = tested on: MDA-MB-231
[14] = tested on: 786-0
[15] = tested on: M14
[16] = tested on: Malme-3M
[17] = tested on: LOX IMVI
[18] = tested on: HOP-92
[19] = tested on: OVCAR-4
[20] = tested on: KM12
[21] = tested on: MCF7
[22] = tested on: SK-OV-3
[23] = tested on: NCI/ADR-RES
[24] = tested on: U-251
[25] = tested on: OVCAR-8
[26] = tested on: SK-MEL-2
[27] = tested on: MDA-N
[28] = tested on: IGROV-1
[29] = tested on: OVCAR-5
[30] = tested on: SF-295
[31] = tested on: SNB-75
[32] = tested on: SN12C
[33] = tested on: A498
[34] = tested on: HOP-62
[35] = tested on: HCT-116
[36] = tested on: CAKI-1
[37] = tested on: SW-620
[38] = tested on: UO-31
[39] = tested on: SNB-19
[40] = tested on: OVCAR-3
[41] = tested on: COLO 205
[42] = tested on: HL-60
[43] = tested on: SK-MEL-5
[44] = tested on: SF-268
[45] = tested on: DU-145
[46] = tested on: BT-549
[47] = tested on: PC-3
[48] = tested on: T47D
[49] = tested on: TK-10
[50] = tested on: SR
[51] = tested on: Hs-578T
[52] = tested on: NCI-H226
[53] = tested on: SF-539
[54] = tested on: NCI-H522
[55] = tested on: UACC-62
[56] = tested on: SK-MEL-28
[57] = tested on: NCI-H23
[58] = tested on: CCRF-CEM
[59] = tested on: HCC 2998

CC1CCCC2(CC[N+](C)(CCC[N+](C)(C)C)CC2)C1 (centres undefined)
GI50 [1]: > 100 µM (inactive)
GI50 [2]: > 100 µM (inactive)
GI50 [3]: > 100 µM (inactive)
GI50 [4]: > 100 µM (inactive)
GI50 [5]: > 100 µM (inactive)
GI50 [6]: > 100 µM (inactive)
GI50 [7]: > 100 µM (inactive)
GI50 [8]: > 100 µM
GI50 [9]: > 100 µM (inactive)
GI50 [10]: > 100 µM (inactive)
GI50 [11]: > 100 µM (inactive)
GI50 [12]: > 100 µM (inactive)
GI50 [13]: > 100 µM (inactive)
GI50 [14]: > 100 µM (inactive)
GI50 [15]: > 100 µM (inactive)
GI50 [16]: > 100 µM (inactive)
GI50 [17]: > 100 µM (inactive)
GI50 [18]: > 100 µM (inactive)
GI50 [19]: > 100 µM (inactive)
GI50 [20]: > 100 µM (inactive)
GI50 [21]: > 100 µM (inactive)
GI50 [22]: > 100 µM (inactive)
GI50 [23]: > 100 µM (inactive)
GI50 [24]: > 100 µM (inactive)
GI50 [25]: > 100 µM (inactive)
GI50 [26]: > 100 µM (inactive)
GI50 [27]: > 100 µM (inactive)
GI50 [28]: > 100 µM (inactive)
GI50 [29]: > 100 µM (inactive)
GI50 [30]: > 100 µM (inactive)
GI50 [31]: > 100 µM (inactive)
GI50 [32]: > 100 µM (inactive)
GI50 [33]: > 100 µM (inactive)
GI50 [34]: > 100 µM (inactive)
GI50 [35]: > 100 µM (inactive)
GI50 [36]: > 100 µM (inactive)
GI50 [37]: > 100 µM (inactive)
GI50 [38]: > 100 µM (inactive)
GI50 [39]: > 100 µM (inactive)
GI50 [40]: > 100 µM (inactive)
GI50 [41]: > 100 µM (inactive)
GI50 [42]: 5.48 µM (inactive)
GI50 [43]: > 100 µM (inactive)
GI50 [44]: > 100 µM (inactive)
GI50 [45]: > 100 µM (inactive)
GI50 [46]: > 100 µM (inactive)
GI50 [47]: > 100 µM (inactive)
GI50 [48]: > 100 µM (inactive)
GI50 [49]: > 100 µM (inactive)
GI50 [50]: > 100 µM (inactive)
GI50 [51]: > 100 µM (inactive)
GI50 [52]: > 100 µM (inactive)
GI50 [53]: > 100 µM (inactive)
GI50 [54]: > 100 µM (inactive)
GI50 [55]: > 100 µM (inactive)
GI50 [56]: > 100 µM (inactive)

COc1cccc(NC(=O)CC(=O)NN)c1
GI50 [1]: > 100 µM (inactive)
GI50 [2]: > 100 µM (inactive)
GI50 [3]: > 100 µM (inactive)
GI50 [4]: > 100 µM (inactive)
GI50 [5]: > 100 µM (inactive)
GI50 [6]: > 100 µM (inactive)
GI50 [7]: > 100 µM (inactive)
GI50 [8]: > 100 µM
GI50 [9]: > 100 µM (inactive)
GI50 [10]: > 100 µM (inactive)
GI50 [11]: > 100 µM (inactive)
GI50 [12]: > 100 µM (inactive)
GI50 [13]: > 100 µM (inactive)
GI50 [14]: > 100 µM (inactive)
GI50 [16]: > 100 µM (inactive)
GI50 [17]: > 100 µM (inactive)
GI50 [18]: > 100 µM (inactive)
GI50 [19]: > 100 µM (inactive)
GI50 [20]: > 100 µM (inactive)
GI50 [21]: > 100 µM (inactive)
GI50 [22]: > 100 µM (inactive)
GI50 [23]: > 100 µM (inactive)
GI50 [24]: > 100 µM (inactive)
GI50 [25]: > 100 µM (inactive)
GI50 [26]: > 100 µM (inactive)
GI50 [27]: > 100 µM (inactive)
GI50 [28]: > 100 µM (inactive)
GI50 [29]: > 100 µM (inactive)
GI50 [30]: > 100 µM (inactive)
GI50 [31]: > 100 µM (inactive)
GI50 [32]: > 100 µM (inactive)
GI50 [33]: > 100 µM (inactive)
GI50 [34]: > 100 µM (inactive)
GI50 [35]: > 100 µM (inactive)
GI50 [36]: > 100 µM (inactive)
GI50 [37]: > 100 µM (inactive)
GI50 [38]: > 100 µM (inactive)
GI50 [39]: > 100 µM (inactive)
GI50 [57]: > 100 µM (inactive)
GI50 [40]: > 100 µM (inactive)
GI50 [41]: > 100 µM (inactive)
GI50 [42]: > 100 µM (inactive)
GI50 [43]: > 100 µM (inactive)
GI50 [44]: > 100 µM (inactive)
GI50 [58]: > 100 µM (inactive)
GI50 [45]: > 100 µM (inactive)
GI50 [46]: > 100 µM (inactive)
GI50 [47]: > 100 µM (inactive)
GI50 [48]: > 100 µM (inactive)
GI50 [49]: > 100 µM (inactive)
GI50 [50]: > 100 µM (inactive)
GI50 [51]: > 100 µM (inactive)
GI50 [52]: > 100 µM (inactive)
GI50 [53]: > 100 µM (inactive)
GI50 [54]: > 100 µM (inactive)
GI50 [55]: > 100 µM (inactive)
GI50 [56]: > 100 µM (inactive)

CCOC1CN(C)/C(=N\c2cccc3ccccc23)S1 (centres undefined)
GI50 [1]: > 10 µM (inactive)
GI50 [2]: > 10 µM (inactive)
GI50 [4]: > 10 µM (inactive)
GI50 [5]: > 10 µM (inactive)
GI50 [6]: > 10 µM (inactive)
GI50 [7]: > 10 µM (inactive)
GI50 [8]: > 10 µM
GI50 [59]: > 10 µM (inactive)
GI50 [9]: > 10 µM (inactive)
GI50 [10]: > 10 µM (inactive)
GI50 [11]: > 10 µM (inactive)
GI50 [12]: > 10 µM (inactive)
GI50 [13]: > 10 µM (inactive)
GI50 [14]: > 10 µM (inactive)
GI50 [15]: > 10 µM (inactive)
GI50 [16]: > 10 µM (inactive)
GI50 [17]: > 10 µM (inactive)
GI50 [18]: > 10 µM (inactive)
GI50 [19]: > 10 µM (inactive)
GI50 [20]: > 10 µM (inactive)
GI50 [21]: > 10 µM (inactive)
GI50 [22]: > 10 µM (inactive)
GI50 [23]: > 10 µM (inactive)
GI50 [24]: > 10 µM (inactive)
GI50 [25]: > 10 µM (inactive)
GI50 [27]: > 10 µM (inactive)
GI50 [28]: > 10 µM (inactive)
GI50 [29]: > 10 µM (inactive)
GI50 [30]: > 10 µM (inactive)
GI50 [31]: > 10 µM (inactive)
GI50 [32]: > 10 µM (inactive)
GI50 [33]: > 10 µM (inactive)
GI50 [34]: > 10 µM (inactive)
GI50 [35]: > 10 µM (inactive)
GI50 [36]: > 10 µM (inactive)
GI50 [37]: > 10 µM (inactive)
GI50 [38]: > 10 µM (inactive)
GI50 [39]: > 10 µM (inactive)
GI50 [57]: > 10 µM (inactive)
GI50 [40]: > 10 µM (inactive)
GI50 [41]: > 10 µM (inactive)
GI50 [43]: > 10 µM (inactive)
GI50 [44]: > 10 µM (inactive)
GI50 [58]: > 10 µM (inactive)
GI50 [45]: > 10 µM (inactive)
GI50 [46]: > 10 µM (inactive)
GI50 [47]: > 10 µM (inactive)
GI50 [48]: > 10 µM (inactive)
GI50 [49]: > 10 µM (inactive)
GI50 [50]: > 10 µM (inactive)
GI50 [51]: > 10 µM (inactive)
GI50 [52]: > 10 µM (inactive)
GI50 [53]: > 10 µM (inactive)
GI50 [54]: > 10 µM (inactive)
GI50 [55]: > 10 µM (inactive)
GI50 [56]: > 10 µM (inactive)
